Test results taken from US9550776B2, “Pyridinylpyrazoloquinoline compounds” (Eisai R&D Management Co., Ltd., priority 2013, dated 2017).

Columns and labels:
[1] = target: T1, human recombinant PDE9 protein (Homo sapiens, UniProt O76083); test: PDE9 inhibitory activity test ([3H]-cGMP hydrolysis); type: biochemical
T1 construct: made in house; host or cells: silkworm (pYNG vector, Katakura Industries)
Experimental: An hsPDE9A 1cDNA fragment was amplified by being based on a base sequence (Accession No.: AF048837) of the hsPDE9A1 registered on GenBank data base, and by using the following sequences (Hokkaido System Science Co., Ltd.) as a primer and Human hippocampus cDNA library (Clontech Laboratories, Inc.) as a template DNA, and using Pfu50 DNA polymerase (Invitrogen Corp.), and by a polymerase chain reaction (PCR) of the following condition.
The condition of PCR: [96° C., 5 min]×1 cycle, [(96° C., 10 sec), (57° C., 5 sec), (72° C., 2 min)]×30 cycles
The obtained hsPDE9A 1cDNA fragment was incorporated in a TOPO-TA cloning vector (Invitrogen Corp.), and the base sequence was checked; and thereafter, the resultant was transfected in a pcDNA 3.1/myc His-tag vector (Invitrogen Corp.) to thereby make a human PDE9 expression vector for mammal cells. The human PDE9 expression vector for mammal cells was transfected with transient expression to an HEK293 cell by using a LIPOFETAMINE 2000 Reagent (Gibco). It was confirmed by Western blot method that the PDE9A expressed in the HEK293 cell, and then, the human PDE9A 1cDNA fragment was transfected in a pYNG vector (Katakura Industries Co., Ltd.) to thereby make an expression vector for insect cells. A supernatant of homogenized silk worm in which a large amount of PDE9 was expressed was purified by an equilibrated Ni column using a buffer A (20 mmol/L Tris-HCl, pH: 8.0, 1 mmol/L DTT, 10 mmol/L imidazole). After 1 hour of mixing of the supernatant and the Ni column, cleaning was carried out using a buffer B (20 mmol/L Tris-HCl, pH: 8.0, 1 mmol/L DTT), and elution was carried out using a buffer C (20 mmol/L Tris-HCl, pH: 8.0, 1 mmol/L DTT, 100 mmol/L imidazole). An elution fraction was preparatively collected to thereby obtain a PDE9 enzyme solution.
To 100 μL of a buffer D (40 mmol/L Tris-HCl, pH: 7.4, 10 mmol/L MgCl2, 1 mM DTT, 2 μM cGMP) solution containing [^3H]-cGMP (0.5 μCi/mL), 10 μL of a compound solution for evaluation (a solution in which a compound was dissolved in DMSO and diluted so that the DMSO concentration became 5%) and 90 μL of a solution prepared by diluting the PDE9 enzyme solution prepared in the above with a buffer E (40 mmol/L Tris-HCl, pH: 7.4, 10 mmol/L MgCl2, 1 mM DTT, 1 mmol/L EGTA) were added under ice cooling. The resultant mixed solution was incubated at 30° C. for 10 min, and thereafter heated for 2 min in boiled water to stop the enzyme reaction of the PDE9. Then, the resultant was returned to room temperature; 50 μL of 5′-Nucleotidase (Biomol GmbH, 10 units/mL) was added thereto; and the resultant was incubated at 30° C. for 10 min to thereby convert [^3H]-5′-GMP formed in the previous reaction to [^3H]-guanosine. 500 μL of an anion exchange resin (Bio-Rad AGl-X2 resin, mesh size: 200-400, H2O:resin=2:1) was added to the resultant reaction liquid, and allowed to stand for 10 min, and thereafter centrifuged (2,000 rpm, 10 min); and a supernatant in which the [^3H]-guanosine was present was transferred to a LumaPlate (PerkinElmer, Inc.), and the radioactivity was measured by a TopCount NXT microplate scintillation and luminescence counter (PerkinElmer, Inc.).
The inhibition percentage of the evaluation compound was calculated using the following expression, taking the radioactivity of a control containing no evaluation compound to be (A), the radioactivity of a blank containing no enzyme to be (B), and the radioactivity of the evaluation compound to be (C). Inhibition percentage=100−{[(C)−(B)]/[(A)−(B)]}×100(%)
The IC50 value for PDE9 of the evaluation compound was determined from inhibition percentage for various concentrations.

hippocampal cGMP = test: Effect on rodent hippocampal cGMP; type: in vivo; details: rat (LE), 10 mg/kg p.o., sampling time 2 hr
Experimental: The test compound was administered to Sprague-Dawley male rats (Charles River Laboratories Japan, Inc.) or Long-Evans male rats (Institute for Animal Reproduction) and then the animals were sacrificed with microwave under pentobarbital anesthesia, and the hippocampus was extracted. After measuring the wet weight, the hippocampus was frozen with liquid nitrogen and stored at −80° C. In the measurement of cGMP in the hippocampus, a 0.5 M perchloric acid/1 mM EDTA solution was added at 5% (w/v) based on the wet weight, and the mixture was homogenized. After the homogenization, the homogenate was centrifuged (10000 rpm, 15 min), and the supernatant was collected. The collected supernatant was neutralized with a 2 M potassium bicarbonate solution and centrifuged (13000 rpm, 10 min). The cGMP concentration in the supernatant was measured in accordance with the non-acetylation EIA procedure of cGMP EIA kit (GE Healthcare). The result was an increase (C) in the amount of cGMP of the test compound-administered group (B) relative to the amount of cGMP of the vehicle-administered group (A), and was calculated using the following formula. cGMP increase(C)=[(B)−(A)]/(A)×100(%)

cerebrospinal fluid cGMP = test: Effect on rodent cerebrospinal fluid cGMP; type: in vivo; details: rat (LE), 10 mg/kg p.o., sampling time 2 hr
Experimental: The test compound was administered to ICR male mice (Charles River Laboratories Japan, Inc.), Sprague-Dawley male rats (SD) (Charles River Laboratories Japan, Inc.) or Long-Evans male rats (LE) (Institute for Animal Reproduction), and the cerebrospinal fluid was then collected under pentobarbital anesthesia and stored at −20° C. cGMP in the cerebrospinal fluid was measured in accordance with the acetylation EIA procedure of cGMP EIA kit (GE Healthcare) or the non-acetylation procedure of cGMP EIA kit (Cayman). The result was an increase (C) in the amount of cGMP of the test compound-administered group (B) relative to the amount of cGMP of the vehicle-administered group (A), and was calculated using the following formula. cGMP increase(C)=[(B)−(A)]/(A)×100(%)

T1 sequence (O76083 whole entry): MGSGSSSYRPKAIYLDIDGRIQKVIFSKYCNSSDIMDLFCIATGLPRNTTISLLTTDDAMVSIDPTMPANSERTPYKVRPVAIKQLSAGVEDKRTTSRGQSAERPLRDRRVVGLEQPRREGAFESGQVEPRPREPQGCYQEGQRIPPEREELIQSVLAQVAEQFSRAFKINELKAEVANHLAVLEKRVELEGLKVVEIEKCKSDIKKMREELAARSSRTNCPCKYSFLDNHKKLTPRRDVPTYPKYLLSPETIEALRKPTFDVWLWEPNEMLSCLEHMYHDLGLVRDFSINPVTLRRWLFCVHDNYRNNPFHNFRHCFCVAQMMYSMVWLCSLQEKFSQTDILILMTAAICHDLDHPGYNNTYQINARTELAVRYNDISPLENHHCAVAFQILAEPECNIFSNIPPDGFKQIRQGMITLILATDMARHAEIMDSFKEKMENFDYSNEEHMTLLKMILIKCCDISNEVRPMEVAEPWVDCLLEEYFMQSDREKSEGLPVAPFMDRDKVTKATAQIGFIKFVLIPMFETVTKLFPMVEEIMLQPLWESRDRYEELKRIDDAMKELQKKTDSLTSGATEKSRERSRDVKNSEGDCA

Row | Compound | IC50 [1] [nM] | % hippocampal cGMP increase from vehicle control (hippocampal cGMP) [%] | % CSF cGMP increase from vehicle control (cerebrospinal fluid cGMP) [%]
1 | (+)-7-(2-Methoxy-3,5-dimethylpyridin-4-yl)-1-((3R*,4R*)-3-methyltetrahydro-2H-pyran-4-yl)-1H-pyrazolo[4,3-c]quinoline-4(5H)-one [Example 3b] | 25.6 |  | 
2 | (−)-7-(6-Methoxy-2,4-dimethylpyridin-3-yl)-1-((3R*,4S*)-3-methyltetrahydro-2H-pyran-4-yl)-1H-pyrazolo[4,3-c]quinoline-4(5H)-one [Example 1d] | 6.9 | 61 | 206
3 | (+)-7-(2-methoxy-4,6-dimethylpyridin-3-yl)-1-((3R*,4S*)-3-methyltetrahydro-2H-pyran-4-yl)-1H-pyrazolo[4,3-c]quinoline-4(5H)-one [Example 2a] | 11.6 |  | 
4 | (+)-7-(6-methoxy-2,4-dimethylpyridin-3-yl)-1-((3R*,4R*)-3-methyltetrahydro-2H-pyran-4-yl)-1H-pyrazolo[4,3-c]quinoline-4(5H)-one [Example 1a] | 48 |  | 
5 | (−)-7-(2-Methoxy-4,6-dimethylpyridin-3-yl)-1-((3R*,4S*)-3-methyltetrahydro-2H-pyran-4-yl)-1H-pyrazolo[4,3-c]quinoline-4(5H)-one [Example 2d] | 1.3 | 23 | 183
6 | COc1nc(C)cc(C)c1-c1ccc2c(c1)[nH]c(=O)c1cnn([C@@H]3CCOC[C@@H]3C)c12 (single isomer, unassigned) [Example 2c, (+)-7-(2-Methoxy-4,6-dimethylpyridin-3-yl)-1-((3R*,4R*)-3-methyltetrahydro-2H-pyran-4-yl)-1H-pyrazolo[4,3-c]quinoline-4(5H)-one] | 12.3 |  | 
7 | (−)-7-(6-Methoxy-2,4-dimethylpyridin-3-yl)-1-((3R*,4R*)-3-methyltetrahydro-2H-pyran-4-yl)-1H-pyrazolo[4,3-c]quinoline-4(5H)-one [Example 1b] | 13.6 | 44 | 147
8 | (−)-7-(2-methoxy-3,5-dimethylpyridin-4-yl)-1-((3R*,4R*)-3-methyltetrahydro-2H-pyran-4-yl)-1H-pyrazolo[4,3-c]quinoline-4(5H)-one [Example 3a] | 6.9 | 58 | 200
9 | (+)-7-(6-Methoxy-2,4-dimethylpyridin-3-yl)-1-((3R*,4S*)-3-methyltetrahydro-2H-pyran-4-yl)-1H-pyrazolo[4,3-c]quinoline-4(5H)-one [Example 1c] | 87.2 |  | 
10 | COc1nc(C)cc(C)c1-c1ccc2c(c1)[nH]c(=O)c1cnn([C@@H]3CCOC[C@@H]3C)c12 (single isomer, unassigned) [Example 2b, (−)-7-(2-Methoxy-4,6-dimethylpyridin-3-yl)-1-((3R*,4R*)-3-methyltetrahydro-2H-pyran-4-yl)-1H-pyrazolo[4,3-c]quinoline-4(5H)-one] | 3.7 |  | 

Now from value to compound, other results behind:

Row | IC50 [1] [nM] | Compound | % hippocampal cGMP increase from vehicle control (hippocampal cGMP) [%] | % CSF cGMP increase from vehicle control (cerebrospinal fluid cGMP) [%]
11 | 5.8 | (−)-7-(2-Methoxy-3,5-dimethylpyridin-4-yl)-1-((3R*,4S*)-3-methyltetrahydro-2H-pyran-4-yl)-1H-pyrazolo[4,3-c]quinoline-4(5H)-one [Example 4a] |  | 
12 | 39.1 | (+)-7-(2-Methoxy-3,5-dimethylpyridin-4-yl)-1-((3R*,4S*)-3-methyltetrahydro-2H-pyran-4-yl)-1H-pyrazolo[4,3-c]quinoline-4(5H)-one [Example 4b] |  | 
13 | 12.7 | COc1ncc(C)c(-c2ccc3c(c2)[nH]c(=O)c2cnn([C@H]4CC[C@H](OC)CC4)c23)c1C [Example 5b, 7-(2-methoxy-3,5-dimethylpyridin-4-yl)-1-(trans-4-methoxycyclohexyl)-1H-pyrazolo[4,3-c]quinoline-4(5H)-one] | 41 | 167
14 | 9.8 | COc1ncc(C)c(-c2ccc3c(c2)[nH]c(=O)c2cnn([C@H]4CC[C@@H](OC)CC4)c23)c1C [Example 5a, 7-(2-methoxy-3,5-dimethylpyridin-4-yl)-1-(cis-4-methoxycyclohexyl)-1H-pyrazolo[4,3-c]quinoline-4(5H)-one] |  | 
